Data reported in patent US12371428B2 (Exelixis, Inc., priority 2019, dated 2025).

Experiments:
Type in all cases: cell-based
[1] = target: KDR (phospho-KDR, VEGF165-stimulated HUVEC cells) (Homo sapiens (Human), UniProt P35968); experiment: KDR autophosphorylation ELISA in HUVEC cells (Example G); conditions: cellular activity; KDR autophosphorylation ELISA in HUVEC cells
Method in brief: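 IC50 values derive from nonlinear curve fitting of phospho-KDR levels measured by ELISA and interpolated from a phosphoprotein standard. Beforehand, starved HUVECs received compound (0.3% DMSO vehicle) for one hour and were activated with VEGF165 at 100 ng/mL for 5 min.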

[2] = target: Met (phospho-Met, HGF-stimulated PC-3 prostate cancer cells) (Homo sapiens (Human), UniProt P08581); experiment: Met autophosphorylation ELISA in PC-3 cells (Example F); conditions: cellular activity; Met autophosphorylation ELISA in PC-3 cells; read-out: c-Met IC50
Method in brief: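 IC50 values derive from a 4-parameter logistic fit of phospho-Met (panTyr) sandwich ELISA signals in PC-3 lysates, scaled between DMSO and reference-inhibitor wells. Cells, starved 3 h in serum-free medium, had 1 h compound exposure (8 doses, 0.3% DMSO) before 10 min stimulation with 100 ng/mL HGF.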

[3] = target: AXL (phospho-AXL, Gas6-stimulated A-172 glioblastoma cells) (Homo sapiens (Human), UniProt P30530); experiment: AXL autophosphorylation ELISA in A-172 cells (Example E); conditions: cellular activity; AXL autophosphorylation ELISA in A-172 cells; read-out: Axl IC50
Method in brief: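 Phospho-AXL in lysates was quantified by ELISA, normalised to DMSO (100%) and reference inhibitor (0%) controls. IC50 by 4-parameter logistic fit.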

[4] = target: Mer (phospho-Mer, MERTK-transfected 293A cells) (Homo sapiens (Human), UniProt Q12866); experiment: Mer autophosphorylation ELISA in transient transfected 293A cells (Example H); conditions: cellular activity; Mer autophosphorylation ELISA in transient transfected 293A cells
Method in brief: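 Human MERTK transiently transfected into 293A cells; compounds as 8-point dose curve in serum-free medium (0.3% DMSO final), 1 h. Lysates assayed by phospho-Mer sandwich ELISA against phospho-Mer standard; DMSO = 100%, reference inhibitor = 0% activity; IC50 from 4-parameter logistic fit.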

Chain of KDR (phospho-KDR, VEGF165-stimulated HUVEC cells) (P35968 20-1356): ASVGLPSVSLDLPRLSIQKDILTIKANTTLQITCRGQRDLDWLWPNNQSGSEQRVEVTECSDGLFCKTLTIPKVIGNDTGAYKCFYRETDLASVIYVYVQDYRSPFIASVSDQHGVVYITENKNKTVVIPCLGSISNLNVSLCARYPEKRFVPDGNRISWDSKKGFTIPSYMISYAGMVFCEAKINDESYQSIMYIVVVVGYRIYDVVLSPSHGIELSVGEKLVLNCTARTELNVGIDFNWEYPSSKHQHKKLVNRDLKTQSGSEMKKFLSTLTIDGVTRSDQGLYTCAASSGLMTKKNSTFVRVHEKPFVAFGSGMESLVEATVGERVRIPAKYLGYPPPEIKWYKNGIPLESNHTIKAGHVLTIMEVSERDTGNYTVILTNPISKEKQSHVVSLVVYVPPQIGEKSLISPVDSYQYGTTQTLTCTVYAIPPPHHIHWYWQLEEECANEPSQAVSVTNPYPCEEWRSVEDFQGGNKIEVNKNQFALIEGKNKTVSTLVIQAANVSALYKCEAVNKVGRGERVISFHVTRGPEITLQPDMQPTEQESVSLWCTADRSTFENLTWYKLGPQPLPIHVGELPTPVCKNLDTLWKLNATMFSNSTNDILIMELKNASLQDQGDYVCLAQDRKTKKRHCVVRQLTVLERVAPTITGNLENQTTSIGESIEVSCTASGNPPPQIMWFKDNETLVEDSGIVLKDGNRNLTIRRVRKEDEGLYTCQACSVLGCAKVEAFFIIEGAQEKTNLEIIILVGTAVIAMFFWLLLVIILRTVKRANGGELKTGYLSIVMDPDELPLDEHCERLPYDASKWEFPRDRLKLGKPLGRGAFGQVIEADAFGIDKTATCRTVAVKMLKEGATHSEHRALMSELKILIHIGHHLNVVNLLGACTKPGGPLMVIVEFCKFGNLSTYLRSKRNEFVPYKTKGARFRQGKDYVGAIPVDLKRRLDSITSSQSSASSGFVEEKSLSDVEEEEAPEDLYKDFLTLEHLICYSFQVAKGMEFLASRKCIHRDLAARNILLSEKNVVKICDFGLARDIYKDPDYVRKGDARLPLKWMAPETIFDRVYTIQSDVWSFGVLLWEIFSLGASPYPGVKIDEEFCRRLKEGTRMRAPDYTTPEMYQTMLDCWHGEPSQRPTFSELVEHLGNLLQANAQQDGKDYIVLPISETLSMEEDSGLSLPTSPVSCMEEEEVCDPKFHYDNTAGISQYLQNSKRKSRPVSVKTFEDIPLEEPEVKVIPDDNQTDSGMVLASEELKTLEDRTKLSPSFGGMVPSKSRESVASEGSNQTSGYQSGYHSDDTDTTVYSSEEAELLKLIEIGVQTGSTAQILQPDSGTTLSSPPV
Chain of AXL (phospho-AXL, Gas6-stimulated A-172 glioblastoma cells) (P30530 26-894): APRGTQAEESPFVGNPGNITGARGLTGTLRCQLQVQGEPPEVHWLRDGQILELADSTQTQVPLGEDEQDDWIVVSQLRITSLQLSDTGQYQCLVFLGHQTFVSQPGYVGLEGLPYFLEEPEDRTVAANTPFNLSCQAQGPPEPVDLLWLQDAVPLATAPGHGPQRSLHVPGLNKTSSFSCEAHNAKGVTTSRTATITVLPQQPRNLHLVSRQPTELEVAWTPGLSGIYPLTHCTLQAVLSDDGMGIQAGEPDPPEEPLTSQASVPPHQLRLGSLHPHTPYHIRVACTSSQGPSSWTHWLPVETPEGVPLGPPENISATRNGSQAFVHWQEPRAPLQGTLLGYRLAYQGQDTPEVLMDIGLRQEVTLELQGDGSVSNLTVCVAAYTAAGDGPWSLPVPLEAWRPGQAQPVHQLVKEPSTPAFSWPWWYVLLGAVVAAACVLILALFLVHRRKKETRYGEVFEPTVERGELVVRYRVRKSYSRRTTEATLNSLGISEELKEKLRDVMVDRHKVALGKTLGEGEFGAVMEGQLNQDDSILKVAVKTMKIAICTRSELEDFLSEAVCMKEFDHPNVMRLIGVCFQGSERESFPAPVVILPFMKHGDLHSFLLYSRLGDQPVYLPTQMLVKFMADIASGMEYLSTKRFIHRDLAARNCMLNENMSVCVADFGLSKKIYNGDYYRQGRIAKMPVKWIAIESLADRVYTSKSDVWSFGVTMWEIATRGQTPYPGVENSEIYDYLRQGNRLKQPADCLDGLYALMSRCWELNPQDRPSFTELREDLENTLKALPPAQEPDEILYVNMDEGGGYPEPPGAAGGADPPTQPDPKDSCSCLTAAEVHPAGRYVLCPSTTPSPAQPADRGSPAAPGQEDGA
Chain of Mer (phospho-Mer, MERTK-transfected 293A cells) (Q12866 21-999): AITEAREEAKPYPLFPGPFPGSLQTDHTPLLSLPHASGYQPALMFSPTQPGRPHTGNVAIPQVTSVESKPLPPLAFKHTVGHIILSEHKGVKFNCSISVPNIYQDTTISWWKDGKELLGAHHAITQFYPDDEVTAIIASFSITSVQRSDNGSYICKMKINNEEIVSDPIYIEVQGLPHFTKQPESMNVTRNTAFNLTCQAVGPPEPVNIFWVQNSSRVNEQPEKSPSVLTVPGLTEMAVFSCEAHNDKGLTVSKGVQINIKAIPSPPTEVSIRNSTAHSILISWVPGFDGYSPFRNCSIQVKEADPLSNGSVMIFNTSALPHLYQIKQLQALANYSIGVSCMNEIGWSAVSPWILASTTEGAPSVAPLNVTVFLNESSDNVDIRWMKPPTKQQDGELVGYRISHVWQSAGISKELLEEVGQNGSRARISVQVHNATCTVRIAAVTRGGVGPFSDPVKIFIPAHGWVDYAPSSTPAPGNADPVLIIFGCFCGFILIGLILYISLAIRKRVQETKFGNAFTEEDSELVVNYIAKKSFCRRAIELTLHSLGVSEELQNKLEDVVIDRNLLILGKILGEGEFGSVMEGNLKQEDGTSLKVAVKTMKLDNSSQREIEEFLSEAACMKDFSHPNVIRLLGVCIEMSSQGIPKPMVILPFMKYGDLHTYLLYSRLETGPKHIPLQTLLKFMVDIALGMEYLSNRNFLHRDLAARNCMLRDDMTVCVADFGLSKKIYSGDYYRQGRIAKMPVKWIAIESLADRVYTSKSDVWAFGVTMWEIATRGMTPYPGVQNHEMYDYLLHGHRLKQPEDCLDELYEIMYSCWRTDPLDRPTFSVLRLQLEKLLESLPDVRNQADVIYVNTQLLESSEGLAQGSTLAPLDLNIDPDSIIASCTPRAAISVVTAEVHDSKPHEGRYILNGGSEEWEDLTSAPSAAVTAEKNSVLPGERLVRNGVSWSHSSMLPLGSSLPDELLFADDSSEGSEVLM
Chain of Met (phospho-Met, HGF-stimulated PC-3 prostate cancer cells) (P08581 25-1390): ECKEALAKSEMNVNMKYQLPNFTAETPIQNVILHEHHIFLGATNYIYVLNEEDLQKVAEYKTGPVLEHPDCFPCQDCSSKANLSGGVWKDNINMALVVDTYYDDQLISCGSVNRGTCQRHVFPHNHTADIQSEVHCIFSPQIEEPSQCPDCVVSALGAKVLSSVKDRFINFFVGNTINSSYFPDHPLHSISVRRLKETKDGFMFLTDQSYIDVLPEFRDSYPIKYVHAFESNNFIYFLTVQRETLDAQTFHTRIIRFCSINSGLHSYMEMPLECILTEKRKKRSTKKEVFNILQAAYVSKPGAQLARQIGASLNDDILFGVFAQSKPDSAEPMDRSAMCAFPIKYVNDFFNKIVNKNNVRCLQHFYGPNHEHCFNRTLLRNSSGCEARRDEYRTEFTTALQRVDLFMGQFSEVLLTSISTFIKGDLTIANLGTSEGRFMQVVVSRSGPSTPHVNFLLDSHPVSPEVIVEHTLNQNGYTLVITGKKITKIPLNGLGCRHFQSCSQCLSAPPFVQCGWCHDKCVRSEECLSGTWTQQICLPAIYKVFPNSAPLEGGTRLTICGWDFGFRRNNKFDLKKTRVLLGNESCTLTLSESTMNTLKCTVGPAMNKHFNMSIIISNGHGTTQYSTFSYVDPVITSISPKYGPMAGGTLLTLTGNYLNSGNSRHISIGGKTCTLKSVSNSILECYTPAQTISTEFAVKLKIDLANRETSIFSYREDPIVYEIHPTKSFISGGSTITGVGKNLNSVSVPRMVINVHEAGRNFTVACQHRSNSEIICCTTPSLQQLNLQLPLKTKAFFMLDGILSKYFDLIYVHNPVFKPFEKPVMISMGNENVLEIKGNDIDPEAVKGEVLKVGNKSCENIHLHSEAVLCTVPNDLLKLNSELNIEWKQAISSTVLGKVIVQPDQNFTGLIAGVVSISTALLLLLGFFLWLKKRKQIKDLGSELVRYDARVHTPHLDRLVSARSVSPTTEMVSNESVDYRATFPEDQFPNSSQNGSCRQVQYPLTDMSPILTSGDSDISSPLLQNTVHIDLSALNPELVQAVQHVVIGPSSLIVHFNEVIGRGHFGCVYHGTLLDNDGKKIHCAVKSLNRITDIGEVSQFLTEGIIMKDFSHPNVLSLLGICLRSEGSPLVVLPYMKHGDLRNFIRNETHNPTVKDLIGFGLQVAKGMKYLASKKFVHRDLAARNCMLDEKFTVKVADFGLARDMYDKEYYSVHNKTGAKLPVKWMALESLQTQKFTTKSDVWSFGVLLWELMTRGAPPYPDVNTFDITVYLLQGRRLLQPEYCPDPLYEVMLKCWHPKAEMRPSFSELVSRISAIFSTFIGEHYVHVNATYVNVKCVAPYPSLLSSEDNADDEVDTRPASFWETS

Structure (SMILES) | IC50 [1] [µM] | IC50 [2] [µM] | IC50 [3] [µM] | IC50 [4] [µM]
COCCOc1cc2nccc(Oc3ccc(NC(=O)c4cn(C)c(C)c(-c5ccc(F)cc5)c4=O)cc3F)c2nc1OC [Compound 486, N-[3-fluoro-4-[[6-methoxy-7-(2-methoxyethoxy)-1,5-naphthyridin-4-yl]oxy]phenyl]-5-(4-fluorophenyl)-1,6-dimethyl-4-oxopyridine-3-carboxamide] | < 0.1 | < 0.1 | < 0.1 | < 0.1
COCCOc1cc2nccc(Oc3ccc(NC(=O)c4c(C)nc(C)c(-c5ccc(F)cc5C)c4O)cc3F)c2nc1OC [Compound 487, N-[3-fluoro-4-[[6-methoxy-7-(2-methoxyethoxy)-1,5-naphthyridin-4-yl]oxy]phenyl]-5-(4-fluoro-2-methylphenyl)-4-hydroxy-2,6-dimethylpyridine-3-carboxamide] | < 0.1 | < 0.1 | < 0.1 | < 0.1
COc1cc2nccc(Oc3ccc(NC(=O)c4nnc(C)c(-c5ccc(F)cc5)c4Cl)cc3F)c2nc1OC [Compound 488, 4-chloro-N-[4-[(6,7-dimethoxy-1,5-naphthyridin-4-yl)oxy]-3-fluorophenyl]-5-(4-fluorophenyl)-6-methylpyridazine-3-carboxamide] | > 0.3 | > 0.3 | 0.1 to 0.3 | < 0.1
COc1cc2nccc(Oc3ccc(NC(=O)c4nnc(C)c(-c5ccc(F)cc5C)c4OC)cc3F)c2nc1OC [Compound 489, N-[4-[(6,7-dimethoxy-1,5-naphthyridin-4-yl)oxy]-3-fluorophenyl]-5-(4-fluoro-2-methylphenyl)-4-methoxy-6-methylpyridazine-3-carboxamide] | < 0.1 | < 0.1 | < 0.1 | < 0.1
COc1cc2nccc(Oc3ccc(NC(=O)c4c(C)ncc(Br)c4O)cc3F)c2nc1OC [Compound 490, 5-bromo-N-[4-[(6,7-dimethoxy-1,5-naphthyridin-4-yl)oxy]-3-fluorophenyl]-4-hydroxy-2-methylpyridine-3-carboxamide] | < 0.1 | < 0.1 | 0.1 to 0.3 | < 0.1
COc1cc2nccc(Oc3ccc(NC(=O)c4cn5cc(C)oc5c(-c5ccc(F)cc5)c4=O)cc3F)c2nc1OC [Compound 491, N-[4-[(6,7-dimethoxy-1,5-naphthyridin-4-yl)oxy]-3-fluorophenyl]-8-(4-fluorophenyl)-2-methyl-7-oxo-[1,3]oxazolo[3,2-a]pyridine-6-carboxamide] | > 0.3 | < 0.1 | < 0.1 | < 0.1
Cc1ccc(C(=O)Nc2ccc(Oc3ccnc4cnc(Cl)cc34)c(F)c2)c(=O)n1-c1ccc(F)cc1 [Compound 496, N-[4-[(6-chloro-1,7-naphthyridin-4-yl)oxy]-3-fluorophenyl]-1-(4-fluorophenyl)-6-methyl-2-oxopyridine-3-carboxamide] | < 0.1 | < 0.1 | < 0.1 | < 0.1
Cc1ncc(C(=O)Nc2ccc(Oc3ccnc4cnc(Cl)cc34)c(F)c2)c(=O)n1-c1ccc(F)cc1 [Compound 497, N-[4-[(6-chloro-1,7-naphthyridin-4-yl)oxy]-3-fluorophenyl]-1-(4-fluorophenyl)-2-methyl-6-oxopyrimidine-5-carboxamide] | > 0.3 | < 0.1 | < 0.1 | < 0.1
Cc1cnc(C(=O)Nc2ccc(Oc3ccnc4cnc(Cl)cc34)c(F)c2)c(=O)n1-c1ccc(F)cc1 [Compound 498, N-[4-[(6-chloro-1,7-naphthyridin-4-yl)oxy]-3-fluorophenyl]-4-(4-fluorophenyl)-5-methyl-3-oxopyrazine-2-carboxamide] | > 0.3 | < 0.1 | < 0.1 | < 0.1
COc1cc2c(Oc3ccc(NC(=O)c4cnc(C)n(-c5ccc(F)cc5)c4=O)cc3F)ccnc2cn1 [Compound 499, N-[3-fluoro-4-[(6-methoxy-1,7-naphthyridin-4-yl)oxy]phenyl]-1-(4-fluorophenyl)-2-methyl-6-oxopyrimidine-5-carboxamide] | 0.1 to 0.3 | < 0.1 | < 0.1 | < 0.1
